Experimental data: patent publication US5552419A, “Arylsulfonamido-substituted hydroxamic acids” (Ciba-Geigy Corporation, priority 1993, dated 1996)

How the values were obtained:
[1] = molecular target: recombinant human stromelysin (Homo sapiens, UniProt P08254); assay: release of KS and S-GAG fragments into the joint in rabbits after intra-articular injection of recombinant human stromelysin; type: in vivo, rabbit; details: 30 mg/kg, 4 hours prior to injection of human recombinant stromelysin
Description: The effect of compounds of the invention in-vivo can be determined in rabbits. […] Two hours later the rabbits are sacrificed, synovial lavage is collected, and keratan sulfate (KS) and sulfated glycosaminoglycan (S-GAG) fragments released into the joint are quantitated. Keratan sulfate is measured by an inhibition ELISA using the method of Thonar (Thonar, E. J.-M. A., Lenz, M. E., Klinsworth, G. K., Caterson, B., Pachman, L. M., Clickman, P.., Katz, R., Huff, J., Keuttner, K. E. Quantitation of keratan sulfate in blood as a marker of cartilage catabolism, Arthr. Rheum. 28, 1367-1376 (1985)). Sulfated glycosaminoglycans are measured by first digesting the synovial lavage with streptomyces hyaluronidase and then measuring DMB dye binding using the method of Goldberg (Goldberg, R. L. and Kolibas, L. An improved method for determining proteoglycan synthesized by chondrocytes in culture. Connect. Tiss. Res. 24, 265-275 (1990)). For an i.v. study, a compound is solubilized in 1 ml of PEG-400, and for a p.o. study, a compound is administered in 5 ml of fortified […] per kilogram of body weight.

cartilage degradation = assay: protection against cartilage degradation in a surgical model of osteoarthritis; type: in vivo
Source text: The effect in protecting against cartilage degradation in arthritic disorders can be determined e.g. in a surgical model of osteoarthritis described in Arthritis and Rheumatism, Vol. 26, 875-886 (1983).

Chain of recombinant human stromelysin (P08254 100-477): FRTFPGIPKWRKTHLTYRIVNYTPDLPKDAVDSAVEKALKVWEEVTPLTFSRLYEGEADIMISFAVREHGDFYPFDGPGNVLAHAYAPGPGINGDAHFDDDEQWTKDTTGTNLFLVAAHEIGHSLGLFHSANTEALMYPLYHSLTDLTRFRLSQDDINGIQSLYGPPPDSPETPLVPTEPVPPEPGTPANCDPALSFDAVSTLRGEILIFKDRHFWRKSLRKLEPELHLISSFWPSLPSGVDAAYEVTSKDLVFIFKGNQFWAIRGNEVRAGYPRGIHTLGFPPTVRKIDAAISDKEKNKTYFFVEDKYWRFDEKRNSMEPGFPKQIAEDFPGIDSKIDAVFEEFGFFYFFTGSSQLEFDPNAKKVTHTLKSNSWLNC

Structure (SMILES): COc1ccc(S(=O)(=O)N(Cc2cccnc2)[C@@H](C(=O)NO)C(C)C)cc1.Cl [N-hydroxy-2(R)-[[4-methoxybenzenesulfonyl](3-picolyl)amino]-3-methylbutanamide hydrochloride]
- inhibition in the release of KS fragments into the joint ([1]; KS by inhibition ELISA): 72%
- inhibition in the release of S-GAG fragments into the joint ([1]; S-GAG by DMB dye binding): 70%
- effect in protecting against cartilage degradation in arthritic disorders (cartilage degradation): protects against cartilage degradation
